Measured values: EP3922250A1, “COMPOSITION FOR CORRECTING THE BEHAVIOUR OF CATS AND DOGS” (priority 2019, dated 2021)
“And” between values parts separate entries of the source, which are not always exact repeats. Equal entries are not always repeated. Structures can show the parent of a compound that is named as a salt.

Experiments:
[1] = in vivo; cited from earlier work
[2] = tested on: male cats
Description: The trials enrolled apparently healthy entire animals (8 male cats and 8 female cats) aged 2 to 6 years, weighing 3 to 4 kg, kept in foster care at BIM Animal Shelter. The females were introduced into the study as they went into estrus. Table XII. Registration details of the cats enrolled in the experiment
Male cats with pronounced signs of heat were placed in individual cages in a dedicated room where 2 female cats in heat were present (in separate cages in the same room). TR Succinate in the tablet form (for the experimental animals) and placebo tablets (for the control animals) were given in accordance with the same design as in the experiment with female cats. Follow-up observation over the animals was carried out in a similar manner.

[3] = tested on: domestic cats; details: 48 to 50 mg per capita (averaging 10 to 14 mg/kg), one hour after administration
Description: Based on the data obtained by observing animals under stress, the most frequent symptoms of anxiety and fear common to various stressful situations were selected to assess the severity of their abnormal behavior. They included vocalizing, hypersalivation, overgrooming, abnormal (higher or lower) motion activity, soiling (urination and/or defecation), and 'destructive behavior' consisting in signs of aggression, attempts at damaging ambient objects, etc. For each symptom (based on its severity), points from 0 to 2 were given, which subsequently were totalized individually for each animal or, where appropriate, for a whole group of animals to determine an average value.
For each of the 6 symptoms (based on its severity), points from 0 to 2 were given, which subsequently were totalized individually for each animal. Therein, a total score of more than 6 points (out of possible 12) was considered to be indicative of an apparent severity of abnormal (changed) behavior.
To carry out the experiment, 6 domestic cats of different sex and age, weighing 3.5 to 5 kg, were selected, who, according to their owners, felt bad during transportation, showing various forms of abnormal behavior. Herein, the actual presence of stress symptoms and their severity for each cat were assessed from video data provided by their owners. […]

[4] = tested on: female cats; test: Suppression of behavioral signs of heat in female cats
[5] = tested on: White Mice; test: Acute oral toxicity testing, intragastric administration (Miller and Tainter); details: for % of deaths / Number of Animals dead: 10 per group, 14 days follow-up
Description: (§1) This parameter was evaluated on mice and rats in accordance with a conventional procedure for acute toxicity testing of medicinal products (Example 2).
(§2) In each case, 7 experimental groups and 1 control group of white rats and 7 experimental and 1 control groups of white mice, 10 individuals in each, were formed. The product was administered via an intragastric tube in accordance with the design described in Table I. 1% starch gel was used as the suspending agent.
(§3) Follow-up period was 14 days. The observation included general condition, behavior, feed and water intake, manifestation of intoxication symptoms, possible deaths.

[6] = tested on: White Rats; test: as above; details: for % of deaths / Number of Animals dead: 10 per group, 14 days follow-up
Description: as §1, §2, §3

[7] = one 100 mg tablet (24 mg active ingredient, 6-8 mg/kg) oral, individual male cats
[8] = female and male cats in heat, single dose 6-8 mg/kg
[9] = one 100 mg tablet (24 mg active ingredient, 6-8 mg/kg) oral, individual female cats
[10] = substance, intragastric, in 1% starch gel
[11] = substance, intragastric, in 1% starch gel, 20160 min

Molecule: O=c1n(CCCN2CCN(c3cccc(Cl)c3)CC2)nc2ccccn12 [TR, Trazodone]
- amount of plasma protein binding [1]: 89-95%
- excreted from the body via the kidneys [1]: 75%
- excreted unchanged with bile [1]: about 20%
- time to reach complete excretion of the substance [1]: 98 h

Molecule: Trazodone Succinate
- abnormal behaviors ([2]; in vivo): no abnormal behaviors were observed
- Total intensity of heat signs after the product administration (points) after 30 minutes [2, 7]: 5 points (3×) and 6 points and 4 points (2×)
- Total intensity of heat signs after the product administration (points) after 3 hours [2, 7]: 1 points (4×) and 2 points (2×)
- Total intensity of heat signs after the product administration (points) after 6 hours [2, 7]: 2 points (4×) and 1 points (2×)
- sedative action onto the animals [3]: pronounced sedative actions of comparable efficacy
- side effects, such as pronounced hypnotic action, atony, slowness or dystaxia ([4]; experimental group female cats, during the experiment): No side effects
- start of the sedative action after the product administration [4, 8]: 30 min
- time the sedative action remained [4, 8]: at least 6 hours
- time to maximum sedative action (substantially complete disappearance of estrous behavior signs) [4, 8]: 1 h
- Total intensity of heat signs after the product administration (points) after 30 minutes [4, 9]: 5 points (3×) and 6 points and 4 points (2×)
- Total intensity of heat signs after the product administration (points) after 1 hour [4, 9]: 0 points (4×) and 1 points (2×)
- Total intensity of heat signs after the product administration (points) after 3 hours [4, 9]: 1 points (5×) and 2 points
- Total intensity of heat signs after the product administration (points) after 6 hours [4, 9]: 2 points (4×) and 1 points (2×)
- Total intensity of heat signs after the product administration (points) after 8 hours [4, 9]: 4 points (2×) and 1 points (3×) and 5 points
- % of deaths ([5]; 400 mg/kg intragastric): 0%
- Number of Animals dead ([5]; 400 mg/kg intragastric): 0
- % of deaths ([5]; 800 mg/kg intragastric): 10.0%
- Number of Animals dead ([5]; 800 mg/kg intragastric): 1
- % of deaths ([5]; 1600 mg/kg intragastric): 70.0%
- Number of Animals dead ([5]; 1600 mg/kg intragastric): 7
- % of deaths ([5]; 2000 mg/kg intragastric): 100.0%
- Number of Animals dead ([5]; 2000 mg/kg intragastric): 10
- % of deaths ([5]; 2500 mg/kg intragastric): 100.0%
- Number of Animals dead ([5]; 2500 mg/kg intragastric): 10
- % of deaths ([5]; 3000 mg/kg intragastric): 100.0%
- Number of Animals dead ([5]; 3000 mg/kg intragastric): 10
- Hazard class according to GOST 12.1.007-76 ([5]; classified from the LD50 values in mice and rats): Hazard Class III
- LD16 [5, 10]: 840 mg/kg
- LD84 [5, 10]: 1690 mg/kg
- LD100 [5, 10]: 1935 mg/kg
- LD50 [5, 11]: 1200 (1091.6-1308.4) mg/kg
- MTD [5, 11]: 400 mg/kg
- % of deaths ([6]; 400 mg/kg intragastric): 0%
- Number of Animals dead ([6]; 400 mg/kg intragastric): 0
- % of deaths ([6]; 800 mg/kg intragastric): 20.0%
- Number of Animals dead ([6]; 800 mg/kg intragastric): 2
- % of deaths ([6]; 1600 mg/kg intragastric): 40.0%
- Number of Animals dead ([6]; 1600 mg/kg intragastric): 4
- % of deaths ([6]; 2700 mg/kg intragastric): 70.0%
- Number of Animals dead ([6]; 2700 mg/kg intragastric): 7
- % of deaths ([6]; 3000 mg/kg intragastric): 100.0%
- Number of Animals dead ([6]; 3000 mg/kg intragastric): 10
- % of deaths ([6]; 3500 mg/kg intragastric): 100.0%
- Number of Animals dead ([6]; 3500 mg/kg intragastric): 10
- LD16 [6, 10]: 760 mg/kg
- LD84 [6, 10]: 2730 mg/kg
- LD100 [6, 10]: 2945 mg/kg
- LD50 [6, 11]: 2300 (2079.5-2520.5) mg/kg
- MTD [6, 11]: 400 mg/kg

Molecule: O=c1n(CCCN2CCN(c3cccc(Cl)c3)CC2)nc2ccccn12 [Trazodone Hydrochloride, reference compound]
- sedative action onto the animals [3]: pronounced sedative actions of comparable efficacy
